Reference: patent US4816448A, “Thermal isomer of difficidin and thermal isomer of oxydifficidin antibacterials” (Merck & Co., Inc., priority 1987, dated 1989)

Columns and labels:
[1] = Isomerization of difficidin at 60° C., HPLC (Example IV); format: physicochemical; settings: tetrahydrofuran
Protocol: Difficidin is stored as the potassium salt at pH7 in aqueous methanol solution at -80° C. A 0.67 ml aliquot containing 400 mcg of difficidin was evaporated to an oil and taken up in 0.2 ml of tetrahydrofuran. The sample was heated at 60° C. for 3 days.

[2] = Thermal isomerization of difficidin and oxydifficidin, equilibrium; format: physicochemical; settings: for time to reach equilibrium with its thermal isomer / converted to thermal isomer at equilibrium: 60° C.; for converted to thermal isomer at equilibrium: suitable solvent such as water, alcohol or ethyl acetate
Protocol: Alternatively, the thermal isomers of the subject invention can be prepared by converting difficidin and oxydifficidin to the thermal isomer of difficidin and thermal isomer of oxydifficidin, respectively. Difficidin and oxydifficidin can be prepared and purified as described in U.S. Pat. No. 4,545,991. The thermal isomers can be prepared by thermally heating (to about 60° C.) the difficidin and oxydifficidin in a suitable solvent system such as water, alcohol or ethyl acetate. At 60° C., it takes about 24 hours for difficidin and oxydifficidin to reach equilibrium with its thermal isomer. At equilibrium, about 25% of the difficidin has converted to the thermal isomer and about 66% of the oxydifficidin has converted to its thermal isomer. […] The thermal isomer can then be separated from the equilibrium mixture by standard chromatographic techniques.

[3] = Isomerization of oxydifficidin at 60° C., HPLC (Example V); format: physicochemical; settings: under argon, tetrahydrofuran
Protocol: Pure oxydifficidin was stored as the potassium salt, pH7, in aqueous methanol solution at -80° C. A 28 ml aliquot, containing 95 mg of antibiotic, was treated with 2 mg. of 2,6-di-t-butyl-phenol and evaporated to 3-4 ml. The concentrate was diluted with tetrahydrofuran to a final volume of 44 ml. The solution was heated under argon at 60° C.

S. aureus = experiment: MIC, standard in vitro assay (Table I); format: cell-based, Staphylococcus aureus; settings: in most cases
Description: (§1) Using standard in vitro assay techniques, minimal inhibitory concentrations (MIC) have been determined for the thermal isomer of difficidin and the thermal isomer of oxydifficidin against a number of bacteria.

Salmonella typhimurium = experiment: MIC, standard in vitro assay (Table I); format: cell-based; settings: in most cases
Description: as §1

Serratia marcescens = experiment: MIC, standard in vitro assay (Table I); format: cell-based; settings: in most cases
Description: as §1

P. aeruginosa = experiment: MIC, standard in vitro assay (Table I); format: cell-based, Pseudomonas aeruginosa; settings: Ps. aeruginosa; in most cases
Description: as §1

Proteus = experiment: Antibacterial activity, relative potency; format: cell-based; settings: in most cases
Description: as §1

aerobic microorganisms = experiment: Antibacterial activity against aerobic microorganisms; format: cell-based; settings: aerobic microorganisms such as Pseudomonas aeruginosa and Staphylococcus aureus
Description: as §1

anaerobic bacteria = experiment: Antibacterial activity against anaerobic bacteria; format: cell-based

| Compound | Composition ([1]; 0 days) | Composition ([1]; 3 days) | time to reach equilibrium with its thermal isomer [2] | converted to thermal isomer at equilibrium [2] | isomerization at room temperature [2] | Composition ([3]; 17 hrs., HPLC) | Composition ([3]; 24 hrs., HPLC) | Composition ([3]; 41 hrs., HPLC) | Composition ([3]; time 0, HPLC) | effectiveness relative to thermal isomer of oxydifficidin (S. aureus) | effectiveness relative to thermal isomer of oxydifficidin (Salmonella typhimurium) | effectiveness relative to thermal isomer of oxydifficidin (Serratia marcescens) | effectiveness relative to thermal isomer of oxydifficidin (P. aeruginosa) | effectiveness relative to thermal isomer of oxydifficidin (Proteus) | potency against aerobic microorganisms vs thermal isomer of oxydifficidin (aerobic microorganisms) | activity against anaerobic bacteria (anaerobic bacteria) |
| --- | --- | --- | --- | --- | --- | --- | --- | --- | --- | --- | --- | --- | --- | --- | --- | --- |
| difficidin | 98% | 76% | about 24 hours | about 25% | some isomerization takes place |  |  |  |  |  |  |  |  |  |  |  |
| oxydifficidin [reference compound] |  |  | about 24 hours | about 66% | some isomerization takes place | 39% | 36% | 34% | 98% |  |  |  |  |  |  |  |
| C=C/C=C(\C)CCC1C/C=C\C=C(\C)C(OP(=O)(O)O)CC/C=C/C=C\C=C/CCC(C)C(=C)CC(=O)O1 (stereo not drawn) [thermal isomer of difficidin, (Z,Z,E,Z,Z,)-16-dihydroxyphosphinoxy-5,7-dimethyl-4-methylene-22-((E)-3-methyl-3,5-hexadienyl)oxacyclo-docosa-8,10,12,17,19-pentaen-2-one] | 2% | 24% |  |  |  |  |  |  |  | four times more effective | four times more effective | four times more effective | four times more effective | four times more effective | more potent than the thermal isomer of oxydifficidin | active against a wide spectrum of anaerobic bacteria |
